Laboratory results from PubChem BioAssay (NCI).
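In this assay, cells in 96-well plates receive the compound at five concentrations for 48 hours. Endpoints are linearly interpolated between the surrounding concentrations. TGI marks complete inhibition of growth.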

Tests used:
Assay in all cases: NCI tumour cell line growth inhibition, 48 h
786-0 renal = test system: 786-0 renal
A498 renal = test system: A498 renal
A549 NSCLC = test system: A549 NSCLC
ACHN renal = test system: ACHN renal
BT-549 breast = test system: BT-549 breast
CCRF-CEM leukemia = test system: CCRF-CEM leukemia
COLO 205 colon = test system: COLO 205 colon
DU-145 prostate = test system: DU-145 prostate
EKVX NSCLC = test system: EKVX NSCLC
HCC-2998 colon = test system: HCC-2998 colon
HCT-116 colon = test system: HCT-116 colon
HCT-15 colon = test system: HCT-15 colon
HL-60(TB) leukemia = test system: HL-60(TB) leukemia
HOP-62 NSCLC = test system: HOP-62 NSCLC
HOP-92 NSCLC = test system: HOP-92 NSCLC
HS 578T breast = test system: HS 578T breast
HT29 colon = test system: HT29 colon
IGROV1 ovarian = test system: IGROV1 ovarian
KM12 colon = test system: KM12 colon
LOX IMVI melanoma = test system: LOX IMVI melanoma
M14 melanoma = test system: M14 melanoma
MALME-3M melanoma = test system: MALME-3M melanoma
MCF7 breast = test system: MCF7 breast
MDA-MB-231 breast = test system: MDA-MB-231 breast
MDA-MB-435 = test system: MDA-MB-435
MDA-N = test system: MDA-N
MOLT-4 leukemia = test system: MOLT-4 leukemia
NCI-H23 lung = test system: NCI-H23 lung
NCI-H460 lung = test system: NCI-H460 lung
NCI-H522 lung = test system: NCI-H522 lung
NCI/ADR-RES ovarian = test system: NCI/ADR-RES ovarian
OVCAR-3 ovarian = test system: OVCAR-3 ovarian
OVCAR-4 ovarian = test system: OVCAR-4 ovarian
OVCAR-5 ovarian = test system: OVCAR-5 ovarian
OVCAR-8 ovarian = test system: OVCAR-8 ovarian
PC-3 prostate = test system: PC-3 prostate
RPMI-8226 leukemia = test system: RPMI-8226 leukemia
RXF 393 renal = test system: RXF 393 renal
SF-268 CNS = test system: SF-268 CNS
SF-295 CNS = test system: SF-295 CNS
SF-539 CNS = test system: SF-539 CNS
SK-MEL-2 melanoma = test system: SK-MEL-2 melanoma
SK-MEL-28 melanoma = test system: SK-MEL-28 melanoma
SK-MEL-5 melanoma = test system: SK-MEL-5 melanoma
SK-OV-3 ovarian = test system: SK-OV-3 ovarian
SNB-19 CNS = test system: SNB-19 CNS
SNB-75 CNS = test system: SNB-75 CNS
SR leukemia = test system: SR leukemia
SW-620 colon = test system: SW-620 colon
T-47D breast = test system: T-47D breast
TK-10 renal = test system: TK-10 renal
U251 CNS = test system: U251 CNS
UACC-257 melanoma = test system: UACC-257 melanoma
UACC-62 melanoma = test system: UACC-62 melanoma
UO-31 renal = test system: UO-31 renal
CAKI-1 renal = test system: CAKI-1 renal
K-562 leukemia = test system: K-562 leukemia
NCI-H226 lung = test system: NCI-H226 lung
SN12C renal = test system: SN12C renal

In the case of `C=C1C(=O)OC2C1CC(O)/C(C)=C\CCC1(C)OC21` (stereo not drawn), the TGI (786-0 renal) is reported as > 100 µM, the TGI (A498 renal) is reported as > 100 µM and the TGI (A549 NSCLC) is reported as > 100 µM. For the same compound, the TGI (ACHN renal) was > 100 µM, the TGI (BT-549 breast) was 43.2 µM and the TGI (CCRF-CEM leukemia) was > 100 µM. The TGI (COLO 205 colon) was 89.9 µM, the TGI (DU-145 prostate) was > 100 µM and the TGI (EKVX NSCLC) was > 100 µM. The TGI (HCC-2998 colon) was 79.9 µM, the TGI (HCT-116 colon) was > 100 µM and the TGI (HCT-15 colon) was 33.5 µM. The TGI (HL-60(TB) leukemia) was 83.8 µM, the TGI (HOP-62 NSCLC) was 49.3 µM and the TGI (HOP-92 NSCLC) was > 100 µM. For the same compound, the TGI (HS 578T breast) was 67.9 µM, the TGI (HT29 colon) was > 100 µM and the TGI (IGROV1 ovarian) was > 100 µM. The TGI (KM12 colon) was > 100 µM, the TGI (LOX IMVI melanoma) was 78.7 µM and the TGI (M14 melanoma) was 64.4 µM. For the same compound, the TGI (MALME-3M melanoma) was 45.4 µM, the TGI (MCF7 breast) was 86.1 µM and the TGI (MDA-MB-231 breast) was 35.4 µM. The TGI (MDA-MB-435) was 89.6 µM, the TGI (MDA-N) was 36.2 µM and the TGI (MOLT-4 leukemia) was 79.3 µM. The TGI (NCI-H23 lung) was > 100 µM, the TGI (NCI-H460 lung) was > 100 µM and the TGI (NCI-H522 lung) was 33 µM. For the same compound, the TGI (NCI/ADR-RES ovarian) was 62.3 µM, the TGI (OVCAR-3 ovarian) was 34.1 µM and the TGI (OVCAR-4 ovarian) was > 100 µM. The TGI (OVCAR-5 ovarian) was 75 µM, the TGI (OVCAR-8 ovarian) was > 100 µM and the TGI (PC-3 prostate) was > 100 µM. For the same compound, the TGI (RPMI-8226 leukemia) was 65.4 µM, the TGI (RXF 393 renal) was 31.8 µM and the TGI (SF-268 CNS) was 86.6 µM. The TGI (SF-295 CNS) was > 100 µM, the TGI (SF-539 CNS) was > 100 µM and the TGI (SK-MEL-2 melanoma) was 44.5 µM. The TGI (SK-MEL-28 melanoma) was 91.1 µM, the TGI (SK-MEL-5 melanoma) was 47.5 µM and the TGI (SK-OV-3 ovarian) was > 100 µM. For the same compound, the TGI (SNB-19 CNS) was > 100 µM, the TGI (SNB-75 CNS) was > 100 µM and the TGI (SR leukemia) was 61.2 µM. The TGI (SW-620 colon) was > 100 µM, the TGI (T-47D breast) was > 100 µM and the TGI (TK-10 renal) was > 100 µM. For the same compound, the TGI (U251 CNS) was 54.8 µM, the TGI (UACC-257 melanoma) was > 100 µM and the TGI (UACC-62 melanoma) was 61.1 µM. It also gave a TGI (UO-31 renal) of 66.6 µM.

With `O=C(N/N=C\c1ccc2ccccc2c1)Nc1ccc([N+](=O)[O-])cc1` the TGI (786-0 renal) was > 62.8 µM, the TGI (A549 NSCLC) was > 85 µM and the TGI (ACHN renal) was > 63.8 µM. The TGI (BT-549 breast) was > 77.3 µM, the TGI (CAKI-1 renal) was > 100 µM and the TGI (CCRF-CEM leukemia) was > 100 µM. For the same compound, the TGI (COLO 205 colon) was > 60 µM, the TGI (DU-145 prostate) was > 65 µM and the TGI (EKVX NSCLC) was > 100 µM. For the same compound, the TGI (HCC-2998 colon) was > 63.3 µM, the TGI (HCT-116 colon) was > 59 µM and the TGI (HCT-15 colon) was > 72.6 µM. The TGI (HL-60(TB) leukemia) was > 100 µM, the TGI (HOP-62 NSCLC) was 68.1 µM and the TGI (HOP-92 NSCLC) was 38.5 µM. For the same compound, the TGI (HS 578T breast) was > 100 µM, the TGI (HT29 colon) was > 75.6 µM and the TGI (IGROV1 ovarian) was > 100 µM. For the same compound, the TGI (K-562 leukemia) was > 100 µM, the TGI (KM12 colon) was > 100 µM and the TGI (LOX IMVI melanoma) was > 100 µM. The TGI (M14 melanoma) was > 95.8 µM, the TGI (MALME-3M melanoma) was > 70.9 µM and the TGI (MCF7 breast) was > 100 µM. For the same compound, the TGI (MDA-MB-231 breast) was > 100 µM, the TGI (MDA-MB-435) was > 100 µM and the TGI (MDA-N) was > 70.6 µM. For the same compound, the TGI (MOLT-4 leukemia) was 97.7 µM, the TGI (NCI-H226 lung) was > 100 µM and the TGI (NCI-H23 lung) was > 72.3 µM. The TGI (NCI-H460 lung) was > 65.1 µM, the TGI (NCI-H522 lung) was > 66.8 µM and the TGI (NCI/ADR-RES ovarian) was > 70.1 µM. The TGI (OVCAR-3 ovarian) was 55.4 µM, the TGI (OVCAR-4 ovarian) was > 70.2 µM and the TGI (OVCAR-5 ovarian) was 62.9 µM. For the same compound, the TGI (OVCAR-8 ovarian) was > 66.1 µM, the TGI (PC-3 prostate) was > 73 µM and the TGI (RPMI-8226 leukemia) was > 100 µM. For the same compound, the TGI (RXF 393 renal) was > 79.2 µM, the TGI (SF-268 CNS) was > 89.9 µM and the TGI (SF-295 CNS) was > 68.9 µM. The TGI (SF-539 CNS) was > 69.7 µM, the TGI (SK-MEL-2 melanoma) was > 73.5 µM and the TGI (SK-MEL-28 melanoma) was > 84.8 µM. For the same compound, the TGI (SK-MEL-5 melanoma) was > 70.4 µM, the TGI (SK-OV-3 ovarian) was > 59.8 µM and the TGI (SN12C renal) was > 59.8 µM. For the same compound, the TGI (SNB-19 CNS) was > 100 µM, the TGI (SNB-75 CNS) was > 100 µM and the TGI (SR leukemia) was > 100 µM. The TGI (SW-620 colon) was > 100 µM, the TGI (T-47D breast) was > 59 µM and the TGI (TK-10 renal) was > 55.9 µM. For the same compound, the TGI (U251 CNS) was > 100 µM, the TGI (UACC-257 melanoma) was > 75 µM and the TGI (UACC-62 melanoma) was > 74.8 µM. The TGI (UO-31 renal) was > 59.3 µM.
